# Assays:
# animal model = conditions: cited from earlier work
# [1] = test system: rabbit model of pleurodesis; test: Direct daily dosing at low levels, rabbit model of pleurodesis; assay type: in vivo; conditions: for average pleurodesis score: score out of 8
# Experimental: These experiments were carried out in order to determine if low doses of sclerosing agents could result in successful pleurodesis when administered in a repeated fashion. Using daily doses of silver nitrate or doxycycline in decreasing doses starting at the lower limit of what has previously been reported to be effective, further decreases in dosing were administered utilizing single day, 5 day or 14 day regimens. Theoretically utilizing lower doses on a repeated basis may reduce the frequency and/or severity of side effects.
# All experiments were carried out in a rabbit model of pleurodesis which has been extensively utilized in the field of pleurodesis in many centers around the world. As explained in further detail below, standard pleurodesis is score graded one to 8 and is used for assessment of the efficacy of pleurodesis, the number one representing a normal pleural space while 8 represents complete pleural symphysis. A score of 5 or higher is usually considered consistent with a successful pleurodesis.
# A total of 18 animals were treated with doxycycline at doses of 1 mg/kg, 5 mg/kg, or 10 mg/kg. Animals (n=2) in the 10 mg/kg group received only the single day injection, animals (n=2/group) in the 5 mg/kg range received either 1 day, 5 days or 14 days injection, and animals in the lowest dose range of 1 mg/kg (n=2/group) received repeated injections over 5 days or 14 days. The results were compared with the placebo groups (n=2/group) which were given saline injections over either 1, 5 or 14 days. All doses were administered after a daily drainage. At the end of the treatment period, the animals were euthanized and pleurodesis was scored according to the standard scoring system shown in FIG. 5.
# A total of 20 animals were treated with silver nitrate at dosing concentrations of 0.05%, 0.085%, 0.425% and 0.85%. Note that reported effective single dose injections of silver nitrate in this model range from 0.3% to 0.5%. A concentration of 0.25% was reported to be ineffective in one publication, but overall data is limited. The groups were assigned a treatment period of either a 1 day, 5 days or 14 days of repeated injections. A minimum of 2 animals were used for each of the 10 groups, and a further 2 animals were tested at the lowest dose range (0.05%). The results were compared with the placebo groups which were given saline injections over either 1, 5 or 14 days (n=2/group). All doses were administered after a daily drainage. At the end of the treatment period, the animals were euthanized and pleurodesis was scored according to the standard scoring table (shown in FIG. 5). Degree of pleural inflammation and fibrosis was also evaluated.
# [2] = test system: rabbit model of pleurodesis; conditions: concentration of 0.25%; cited from earlier work
# patients = conditions: cited from earlier work; for pain after intrapleural administration: literature reports
smiles,measurement,setting,value
CN(C)c1ccc(O)c2c1C[C@H]1C[C@H]3[C@H](N(C)C)C(O)=C(C(N)=O)C(=O)[C@@]3(O)C(O)=C1C2=O [minocycline],mortality,"animal model; higher doses, intrapleural (Light et al., 1994)",excess mortality
O=[N+]([O-])[O-].[Ag+] [silver nitrate],average pleurodesis score,[1]; 0.05% 14 days of repeated injections,6.5
same,pleurodesis scores,[1]; 0.050% administered for 14 days,greater than or equal to 5
same,pleurodesis scores,[1]; 0.085% administered for 5 days,successful pleurodesis scores
same,average pleurodesis score,[1]; 0.085% repeated daily over 5 days,7.5
same,pleurodesis outcome,[1]; 0.085% single dose,ineffective in achieving pleurodesis
same,average pleurodesis score,[1]; 0.425% single day injection,8
same,average pleurodesis score,[1]; 0.85% single day injection,8
same,pleurodesis outcome (one publication),[2],ineffective
same,"systemic response (white blood cell count elevation, neutrophilia, serum interleukin-8 and VEGF levels)","animal model; concentration of 0.1% vs 0.5% dose (Marchi et al., 2005)",less systemic response
same,tolerability in human trial,"patients; 0.5% concentration (Paschoalini et al., 2005)",well tolerated
same,clinical side effects,patients; concentrations of up 10% (Wied et al.),severe pain and side effects
same,pain after intrapleural administration,patients,significant
C[C@H]1c2cccc(O)c2C(=O)C2=C(O)[C@]3(O)C(=O)C(C(N)=O)=C(O)[C@@H](N(C)C)[C@@H]3[C@@H](O)[C@@H]21 [doxycycline],pleurodesis score,"[1]; 5 mg/kg over 14 days, score 1-8",5
same,mean pleurodesis score,"[1]; 10 mg/kg single dose, score 1-8",4.5
same,pain after intrapleural administration,patients,significant
CN(C)[C@@H]1C(O)=C(C(N)=O)C(=O)[C@@]2(O)C(O)=C3C(=O)c4c(O)cccc4[C@@](C)(O)[C@H]3C[C@@H]12 [tetracycline],pain after intrapleural administration,patients,Intense pain

# — patent US8529542B2, “Method and system for sustained-release of sclerosing agent” (UTI Limited Partnership, priority 2007, dated 2013)
